Measured values published in patent publication US10246420B2, “Pyrazole derivatives” (BAYER CROPSCIENCE AKTIENGESELLSCHAFT, priority 2014, dated 2019).
Read-outs that look alike come from different tables or passages of the source.

Experiment: Log P by HPLC on reversed phase columns (EEC directive 79/831 Annex V.A8)
Format: physicochemical
Settings: for chromatographic logP: LC-UV, acidic range, 0.1% formic acid in water and acetonitrile as eluent, read-out: LogP [a]
Procedure: Measurement of Log P values was performed according to EEC directive 79/831 Annex V.A8 by HPLC (High Performance Liquid Chromatography) on reversed phase columns with the following methods:
[^a] Log P value is determined by measurement of LC-UV, in an acidic range, with 0.1% formic acid in water and acetonitrile as eluent (linear gradient from 10% acetonitrile to 95% acetonitrile).
[^b] Log P value is determined by measurement of LC-UV, in a neutral range, with 0.001 molar ammonium acetate solution in water and acetonitrile as eluent (linear gradient from 10% acetonitrile to 95% acetonitrile).
[^c] Log P value is determined by measurement of LC-UV, in an acidic range, with 0.1% phosphoric acid and acetonitrile as eluent (linear gradient from 10% acetonitrile to 95% acetonitrile).
Calibration was done with straight-chain alkan-2-ones (with 3 to 16 carbon atoms) with known Log P values (measurement of Log P values using retention times with linear interpolation between successive alkanones). Lambda-max-values were determined using UV-spectra from 200 nm to 400 nm and the peak values of the chromatographic signals.

| SMILES | LogP [a] | other results |
| --- | --- | --- |
| CC(=O)Cc1ccc(O)cc1F [1-(2-fluoro-4-hydroxyphenyl)acetone] | – | chromatographic logP: 1.13 |
| C=CCOc1cc(F)c(Nc2c(-c3ccc(F)cc3Cl)c(C)nn2C)c(F)c1 [Example I-02] | 3.54^[a]; | LogP [c]: 3.40^[c] |
| C#CCOc1cc(F)c(Nc2c(-c3ccc(F)cc3Cl)c(C)nn2C)c(F)c1 [Example I-03] | 3.09^[a]; | LogP [c]: 2.90^[c] |
| C=CCOc1cc(F)c(N(C)c2c(-c3ccc(F)cc3Cl)c(C)nn2C)c(F)c1 [Example I-04] | 4.40^[a] | – |
| C#CCOc1cc(F)cc(F)c1Nc1c(-c2ccc(Cl)cc2Cl)c(C)nn1C [Example I-05] | 3.69^[a] | – |
| C#CCOc1cc(F)c(Nc2c(-c3ccccc3F)c(C)nn2C)c(F)c1 [Example I-06] | 2.78^[a] | – |
| C#CCOc1cc(F)cc(F)c1Nc1c(-c2ccccc2F)c(C)nn1C [Example I-07] | 2.96^[a] | – |
| C=CCOc1cc(F)c(Nc2c(-c3ccc(Cl)cc3Cl)c(C)nn2C)c(F)c1 [Example I-08] | 3.97^[a] | – |
| C#CCOc1cc(F)c(Nc2c(-c3ccc(Cl)cc3Cl)c(C)nn2C)c(F)c1 [Example I-09] | 3.44^[a] | – |
| C#CCOc1cc(F)c(Nc2c(-c3cc(OC)cc(OC)c3)c(C)nn2C)c(F)c1 [Example I-10] | 2.73^[a] | – |
| C=CCOc1cc(F)c(Nc2c(-c3cc(OC)cc(OC)c3)c(C)nn2C)c(F)c1 [Example I-11] | 3.11^[a] | – |
| C#CCOc1cc(F)cc(F)c1Nc1c(-c2cc(OC)cc(OC)c2)c(C)nn1C [Example I-12] | 2.85^[a] | – |
| C=CCOc1cc(F)c(Nc2c(-c3ccccc3F)c(C)nn2C)c(F)c1 [Example I-13] | 3.22^[a] | – |
| C#CCOc1cc(F)c(Nc2c(-c3ccc(F)cc3F)c(C)nn2C)c(F)c1 [Example I-14] | 2.90^[a] | – |
| C=CCOc1cc(F)c(Nc2c(-c3ccc(F)cc3F)c(C)nn2C)c(F)c1 [Example I-15] | 3.33^[a] | – |
| C#CCOc1cc(F)cc(F)c1Nc1c(-c2ccc(F)cc2F)c(C)nn1C [Example I-16] | 3.07^[a] | – |
| C#CCOc1cc(F)c(Nc2c(-c3ccc(OC)cc3F)c(C)nn2C)c(F)c1 [Example I-17] | 2.74^[a] | – |
| C=CCOc1cc(F)c(Nc2c(-c3ccc(OC)cc3F)c(C)nn2C)c(F)c1 [Example I-18] | 3.11^[a] | – |
| C#CCOc1cc(F)cc(F)c1Nc1c(-c2ccc(OC)cc2F)c(C)nn1C [Example I-19] | 2.86^[a] | – |
| C#CCOc1cc(F)c(Nc2c(-c3ccc(Cl)nc3)c(C)nn2C)c(F)c1 [Example I-20] | 2.56^[a]; | LogP [b]: 2.54^[b] |
| C=CCOc1cc(F)c(Nc2c(-c3ccc(Cl)nc3)c(C)nn2C)c(F)c1 [Example I-21] | 2.95^[a]; | LogP [b]: 2.92^[b] |
| C#CCOc1cc(F)cc(F)c1Nc1c(-c2ccc(OCC=C)cc2F)c(C)nn1C [Example I-22, 4-[4-(Allyloxy)-2-fluorophenyl]-N-[2,4-difluoro-6-(prop-2-yn-1-yloxy)phenyl]-1,3-dimethyl-1H-pyrazol-5-amine] | – | chromatographic logP (reversed phase HPLC columns): 3.3 |

| SMILES | LogP [a] | other results |
| --- | --- | --- |
| C=CCOc1ccc(-c2c(C)nn(C)c2Nc2c(F)cc(OCC=C)cc2F)c(F)c1 [Example I-23] | 3.62^[a] | – |
| C#CCOc1cc(F)c(Nc2c(-c3ccc(OCC=C)cc3F)c(C)nn2C)c(F)c1 [Example I-24] | 3.17^[a] | – |
| C#CCOc1cc(F)cc(F)c1Nc1c(-c2ccc(Cl)nc2)c(C)nn1C [Example I-25] | 2.69^[a]; | LogP [b]: 2.63^[b] |
| C#CCOc1ccc(-c2c(C)nn(C)c2Nc2c(F)cc(F)cc2OCC#C)c(F)c1 [Example I-26] | 2.88^[a] | – |
| C#CCOc1ccc(-c2c(C)nn(C)c2Nc2c(F)cc(OCC#C)cc2F)c(F)c1 [Example I-27] | 2.77^[a] | – |
| C#CCOc1ccc(-c2c(C)nn(C)c2Nc2c(F)cc(OCC=C)cc2F)c(F)c1 [Example I-28] | 3.13^[a] | – |
| C#CCOc1ccc(Nc2c(-c3ccc(F)cc3Cl)c(C)nn2C)c(F)c1 [Example I-29] | 3.25^[a]; | LogP [b]: 3.22^[b] |
| C=CCOc1ccc(Nc2c(-c3ccc(F)cc3Cl)c(C)nn2C)cc1 [Example I-30] | 3.51^[a]; | LogP [b]: 3.52^[b] |
| C#CCOc1ccc(Nc2c(-c3ccc(F)cc3Cl)c(C)nn2C)cc1 [Example I-31] | 3.09^[a]; | LogP [b]: 3.06^[b] |
| C#CCOc1ccc(Nc2c(-c3ccc(F)cc3Cl)c(C)nn2C)c(Cl)c1 [Example I-32] | 3.65^[a]; | LogP [b]: 3.59^[b] |
| C#CCOc1cc(F)c(Nc2c(-c3ccc(F)cc3Cl)c(C)nn2C)cc1F [Example I-33] | 3.33^[a]; | LogP [b]: 3.23^[b];; LogP [c]: 3.20^[c] |
| C=CCOc1cc(F)c(Nc2c(-c3ccc(F)cc3Cl)c(C)nn2C)cc1F [Example I-34] | 3.74^[a]; | LogP [b]: 3.66^[b];; LogP [c]: 3.60^[c] |
| C=CCOc1ccc(Nc2c(-c3ccc(F)cc3Cl)c(C)nn2C)cc1F [Example I-35] | 3.61^[a]; | LogP [b]: 3.56^[b];; LogP [c]: 3.50^[c] |
| C#CCOc1ccc(Nc2c(-c3ccc(F)cc3Cl)c(C)nn2C)cc1F [Example I-36] | 3.17^[a]; | LogP [b]: 3.14^[b];; LogP [c]: 3.10^[c] |
| C=CCOc1ccc(F)c(Nc2c(-c3ccc(F)cc3Cl)c(C)nn2C)c1 [Example I-37] | 3.78^[a]; | LogP [b]: 3.73^[b];; LogP [c]: 3.70^[c] |
| C#CCOc1ccc(F)c(Nc2c(-c3ccc(F)cc3Cl)c(C)nn2C)c1 [Example I-38] | 3.33^[a]; | LogP [b]: 3.27^[b];; LogP [c]: 3.20^[c] |
| C#CCOc1cc(F)c(Nc2c(-c3ccc(Cl)cc3Cl)c(C)nn2C)cc1F [Example I-39] | 3.70^[a]; | LogP [b]: 3.62^[b];; LogP [c]: 3.60^[c] |
| C#CCOc1ccc(Nc2c(-c3ccc(Cl)cc3Cl)c(C)nn2C)c(Cl)c1 [Example I-40] | 4.13^[a]; | LogP [b]: 4.06^[b];; LogP [c]: 4.00^[c] |
| C=CCOc1ccc(Nc2c(-c3ccc(F)cc3Cl)c(C)nn2C)c(Cl)c1 [Example I-41] | 4.23^[a]; | LogP [b]: 4.20^[b] |
| C#CCOc1cc(F)cc(F)c1Nc1c(-c2ccc(F)cc2Br)c(C)nn1C [Example I-42] | 3.33^[a]; | LogP [b]: 3.32^[b] |
| C#CCOc1ccccc1Nc1c(-c2ccc(F)cc2Br)c(C)nn1C [Example I-43] | 3.60^[a] | – |
| C=CCOc1ccc(F)cc1Nc1c(-c2ccc(F)cc2Br)c(C)nn1C [Example I-44] | 4.08^[a] | – |

| SMILES | LogP [a] | other results |
| --- | --- | --- |
| C#CCOc1ccc(F)cc1Nc1c(-c2ccc(F)cc2Br)c(C)nn1C [Example I-45] | 3.64^[a] | – |
| C=CCOc1cc(C)ccc1Nc1c(-c2ccc(F)cc2Br)c(C)nn1C [Example I-46] | 4.39^[a] | – |
| C#CCOc1cc(C)ccc1Nc1c(-c2ccc(F)cc2Br)c(C)nn1C [Example I-47] | 3.87^[a] | – |
| C=CCOc1ccccc1Nc1c(-c2ccc(F)cc2Cl)c(C)nn1C [Example I-48] | 3.99^[a] | – |
| C#CCOc1ccccc1Nc1c(-c2ccc(F)cc2Cl)c(C)nn1C [Example I-49] | 3.53^[a] | – |
| C=CCOc1ccc(F)cc1Nc1c(-c2ccc(F)cc2Cl)c(C)nn1C [Example I-50] | 4.01^[a] | – |
| C#CCOc1ccc(F)cc1Nc1c(-c2ccc(F)cc2Cl)c(C)nn1C [Example I-51] | 3.58^[a] | – |
| C=CCOc1cc(C)ccc1Nc1c(-c2ccc(F)cc2Cl)c(C)nn1C [Example I-52] | 4.32^[a] | – |
| C#CCOc1cc(C)ccc1Nc1c(-c2ccc(F)cc2Cl)c(C)nn1C [Example I-53] | 3.83^[a] | – |
| C=CCOc1ccccc1Nc1c(-c2ccc(Cl)cc2Cl)c(C)nn1C [Example I-54] | 4.49^[a] | – |
| C#CCOc1ccccc1Nc1c(-c2ccc(Cl)cc2Cl)c(C)nn1C [Example I-55] | 3.96^[a] | – |
| C=CCOc1ccc(F)cc1Nc1c(-c2ccc(Cl)cc2Cl)c(C)nn1C [Example I-56] | 4.49^[a] | – |
| C=CCOc1cc(C)ccc1Nc1c(-c2ccc(Cl)cc2Cl)c(C)nn1C [Example I-57] | 4.85^[a] | – |
| C#CCOc1cc(C)ccc1Nc1c(-c2ccc(Cl)cc2Cl)c(C)nn1C [Example I-58] | 4.30^[a] | – |
| C#CCOc1cc(F)cc(F)c1Nc1c(-c2c(F)cc(F)cc2F)c(C)nn1C [Example I-59] | 3.10^[a] | – |
| C#CCOc1cc(F)cc(F)c1Nc1c(-c2c(F)cc(Cl)cc2F)c(C)nn1C [Example I-60] | 3.49^[a] | – |
| C#CCOc1cc(F)cc(F)c1Nc1c(-c2c(F)cc(OC)cc2F)c(C)nn1C [Example I-61] | 3.00^[a] | – |
| C#CCOc1cc(F)c(Nc2c(-c3c(F)cc(OC)cc3F)c(C)nn2C)c(F)c1 [Example I-62] | 2.85^[a] | – |
| C#CCOc1cc(F)c(-c2c(C)nn(C)c2Nc2c(F)cc(F)cc2OCC#C)c(F)c1 [Example I-63] | 2.99^[a] | – |
| C#CCOc1cccc(Cl)c1Nc1c(-c2ccc(F)cc2Cl)c(C)nn1C [Example I-64] | 3.56^[a] | – |
| C=CCOc1cccc(Cl)c1Nc1c(-c2ccc(F)cc2Cl)c(C)nn1C [Example I-65] | 4.06^[a] | – |
| C#CCOc1cccc(Cl)c1Nc1c(-c2ccc(Cl)cc2Cl)c(C)nn1C [Example I-66] | 3.99^[a] | – |
